Laboratory results taken from patent US20060025394A1, “Estradiol-related compounds and methods of use as anti-tumor agents” (priority 2003, published 2006).

Key:
MCF-7 = assay: Cytotoxicity testing (Example 7), MTS, MCF-7; assay type: cell-based; conditions: Table 3, five days, 1 mM of each compound, defined media
Procedure: (§1) Cytotoxicity Studies were done in DU-145 and MCF-7 Cells. […] We set out to test the efficacy of these compounds based on known affinities for ER-α previously reported. Cells were treated for five days with 1 mM of each compound in a defined media. Cell number was estimated by the MTS method. Similar studies were carried out in the MCF-7 cell line known to express both ER-α and -β, and display proliferative properties in the presence of classic estrogens.

DU-145 = assay: Cytotoxicity testing (Example 7), MTS, DU-145; assay type: cell-based; conditions: for DU145 % Cell#: Table 3, five days, 1 mM of each compound, defined media, MTS
Procedure: as §1

In the case of `CC12CCC3c4ccc(O)cc4CCC3C1CCC2(O)C=Cc1ccccc1` (stereo not shown) [Compound 1], the “MCF-7 % Cell#” value (MCF-7) is reported as 22% and the “DU145 % Cell#” value (DU-145) is reported as 62%.

With `CC12CCC3c4ccc(O)cc4CCC3C1CCC2(O)C=Cc1ccccc1F` (stereo not shown) [Compound 2] the “MCF-7 % Cell#” value (MCF-7) was 40% and the “DU145 % Cell#” value (DU-145) was 80%.

In the case of `Cc1ccc(C=CC2(O)CCC3C4CCc5cc(O)ccc5C4CCC32C)cc1` (stereo not shown) [Compound 3], the “MCF-7 % Cell#” value (MCF-7) is reported as 23% and the “DU145 % Cell#” value (DU-145) is reported as 33%.

`COC(=O)c1ccc(C=CC2(O)CCC3C4CCc5cc(O)ccc5C4CCC32C)cc1` (stereo not shown) [Compound 4] was tested, and the “MCF-7 % Cell#” value (MCF-7) was 28% and the “DU145 % Cell#” value (DU-145) was 100%.

With `Cc1cccc(C=CC2(O)CCC3C4CCc5cc(O)ccc5C4CCC32C)c1` (stereo not shown) [Compound 5] the “MCF-7 % Cell#” value (MCF-7) was 24%, the “overall result in cytotoxicity testing (Table 3)” value (from here on “overall result”) (DU-145) was “good results” and the “DU145 % Cell#” value (DU-145) was 9%.

With `CC12CCC3c4ccc(O)cc4CCC3C1CCC2(O)C=Cc1ccc(F)cc1` (stereo not shown) [Compound 6] the “MCF-7 % Cell#” value (MCF-7) was 28% and the “DU145 % Cell#” value (DU-145) was 67%.

In the case of `CC12CCC3c4ccc(O)cc4CCC3C1CCC2(O)C=Cc1ccc(C(=O)O)cc1` (stereo not shown) [Compound 8], the “MCF-7 % Cell#” value (MCF-7) is reported as 120% and the “DU145 % Cell#” value (DU-145) is reported as 99%.

`CC12CCC3c4ccc(O)cc4CCC3C1CCC2(O)C=Cc1ccc(F)cc1` (stereo not shown) [Compound 9] was tested, and the “MCF-7 % Cell#” value (MCF-7) was 27%, the “overall result” value (DU-145) was “good results” and the “DU145 % Cell#” value (DU-145) was 17%.

`CC12CCC3c4ccc(O)cc4CCC3C1CCC2(O)C=Cc1ccc(C#N)cc1` (stereo not shown) [Compound 10] was tested, and the “MCF-7 % Cell#” value (MCF-7) was 23% and the “DU145 % Cell#” value (DU-145) was 92%.

In the case of `COc1ccc(C=CC2(O)CCC3C4CCc5cc(O)ccc5C4CCC32C)cc1` (stereo not shown) [Compound 11], the “MCF-7 % Cell#” value (MCF-7) is reported as 28% and the “DU145 % Cell#” value (DU-145) is reported as 60%.

For `COC(=O)c1ccccc1C=CC1(O)CCC2C3CCc4cc(O)ccc4C3CCC21C` (stereo not shown) [Compound 12], the “MCF-7 % Cell#” value (MCF-7) was 30% and the “DU145 % Cell#” value (DU-145) was 92%.

`C=CC1(O)CCC2C3CCc4cc(O)ccc4C3CCC21C` (stereo not drawn) [Compound 13, 17α-vinyl-E2, reference compound] was tested, and the “MCF-7 % Cell#” value (MCF-7) was 53% and the “DU145 % Cell#” value (DU-145) was 98%.

With `COC(=O)c1ccc(C=CC2(O)CCC3C4CCc5cc(O)ccc5C4CCC32C)cc1` (stereo not shown) [Compound 15] the “MCF-7 % Cell#” value (MCF-7) was 32% and the “DU145 % Cell#” value (DU-145) was 92%.

With `CC12CCC3c4ccc(O)cc4CCC3C1CCC2(O)C=Cc1ccccc1CO` (stereo not shown) [Compound 16] the “MCF-7 % Cell#” value (MCF-7) was 55% and the “DU145 % Cell#” value (DU-145) was 105%.

`CC12CCC3c4ccc(O)cc4CCC3C1CCC2(O)C=Cc1ccccc1C(F)(F)F` (stereo not shown) [Compound 19] was tested, and the “MCF-7 % Cell#” value (MCF-7) was 20%, the “overall result” value (DU-145) was “good results” and the “DU145 % Cell#” value (DU-145) was 5%.

For `CC12CCC3c4ccc(O)cc4CCC3C1CCC2(O)C=Cc1ccccc1CO` (stereo not shown) [Compound 20], the “MCF-7 % Cell#” value (MCF-7) was 24% and the “DU145 % Cell#” value (DU-145) was 97%.

With `CC12CCC3c4ccc(O)cc4CCC3C1CCC2(O)C=CBr` (stereo not drawn) [Compound 22, 17α-Br-vinyl-E2, reference compound] the “MCF-7 % Cell#” value (MCF-7) was 59% and the “DU145 % Cell#” value (DU-145) was 91%.
